Laboratory results taken from patent US20140357706A1, “Stearate Compounds” (THE UAB RESEARCH FOUNDATION, priority 2011, published 2014).

Key:
[1] = system: p21^CIP1/WAF1 and p27^KIP1 mRNA; assay: Quantitative real-time RT-PCR for p21CIP1/WAF1 and p27KIP1 in Hs578T cells; format: cell-based, human; conditions: normalized to 18S rRNA; vs control, P<0.05
Experimental: Total RNA was extracted and purified with TRIZOL Reagent (GIBCO Invitrogen, Carlsbad, Calif.). The first-strand complementary DNA (cDNA) synthesis was achieved using a commercially available kit (New England BioLabs, Beverly, Mass.) according to the protocol from the manufacturer. Briefly, 1 μg of total RNA was reverse-transcribed using M-MuLV reverse transcriptase (25 U) and dT23VN primer (5 μM) in a final volume of 25 μl.
Quantitative real-time reverse-transcription polymerase chain reaction (RT-PCR) cDNA samples were diluted to appropriate concentrations and used for a real-time RT-PCR assay in a volume of 25 μl, containing 2 μl DNA template, 12.5 μl SYBR® Green PCR Master Mix (Applied Biosystems, Foster City, Calif.) and 0.4 μM each specific primer. The gene expression of p21^CIP1/WAF1 and p27^KIP1 were determined by real-time quantitative RT-PCR and the house-keeping gene 18S ribosomal RNA (rRNA) was used as an internal control to normalize the variable RNA loading in each sample. […] The fluorescence intensity corresponding to the CT was used to quantitate the target cDNA in the mixture of samples with […] dilutions, employing the standard curve for each target gene. Sequence Detector Software (Applied Biosystems) was used to extract the data of the quantitative real-time RT-PCR. […]

[2] = system: visceral adipocytes from ApoE knockout mice; assay: Expression of cIAP2, Bcl-2 and Bax in visceral adipocyte cultures; format: cell-based; conditions: 50 μM fatty acid; vs no additional fatty acid
Experimental: It was hypothesized that stearate induces apoptosis in visceral adipocytes by at least one of the following mechanisms: inhibition of cIAP2, activation of Bcl-2, and activation of BAX. […] Six cultures were exposed to each fatty acid or no fatty acid. The expression of cIAP2, Bcl-2, and Bax was measured in each culture. […] By decreasing levels of the cIAP2 and/or Bcl-2 polypeptides and increasing expression of the Bax polypeptide, stearate administration may lead to an increase in cellular apoptotic activity (such as but not limited to the visceral fat tissues). Without wishing to be bound by any given hypothetical model, it is proposed that this reduction in cIAP2 expression and this increase in Bax expression (independently or in combination) is responsible for the relative decrease in visceral fat tissue that is observed when animals are given a diet that is high in stearate.

[3] = system: human ovarian granulosa cells; conditions: 50 μM for 3 days; cited from earlier work
[4] = system: Hs578T human breast cancer cells; assay: Flow cytometry cell cycle analysis; format: cell-based; conditions: 50 μM stearate
Experimental: Hs578T human breast cancer cells (ATCC, HTB-126) were maintained according to the manufacturer's recommendations, in Dulbecco's modified Eagle's medium containing 10% fetal bovine serum, […] insulin and penicillin/streptomycin.
The concentration of stearate used to treat the Hs578T cells was 50 μM. When EGF was used, the concentration was 1 nM EGF. Before the treatment with stearate or EGF, cells were first starved for 24-48 hours. Stearate was loaded onto fatty acid-free bovine serum albumin (BSA) according to the method reported by Spector et al. (13); briefly, stearate (0.5 g) was dissolved in chloroform (100 ml) and mixed well with 10 g diatomaceous earth in a 1 liter flask. The mixture was stirred and dried under nitrogen until powder. BSA is a physiological carrier of fatty acids and was used to avoid the introduction of organic solvents to solutions coming into contact with cells. […] The concentration of stearate in the solution was detected with the NEFA C Kit from Wako Chemicals GmbH (Neuss, Germany). […]
To analyze cellular DNA content, confluent Hs578t cells were harvested, fixed in ice-cold 70% ethanol for 30 min and then resuspended in citrate buffer (4 mM sodium citrate) containing 50 μg/ml of propidium iodide and 100 μg/ml of RNase. […] Data were analyzed using the ModFit LT workshop program (BD Immunocytometry System, San Jose, Calif.).

[5] = system: MCF10A; conditions: ref (27); cited from earlier work
[6] = system: Rho; assay: Rho activation assay in Hs578T cells; format: cell-based, human; conditions: all time points, especially 16 and 24 h post-EGF stimulation; vs controls
Experimental: The concentration of stearate used to treat the Hs578T cells was 50 μM. When EGF was used, the concentration was 1 nM EGF. Before the treatment with stearate or EGF, cells were first starved for 24-48 hours. Stearate was loaded onto fatty acid-free bovine serum albumin (BSA) according to the method reported by Spector et al. (13); briefly, stearate (0.5 g) was dissolved in chloroform (100 ml) and mixed well with 10 g diatomaceous earth in a 1 liter flask. The mixture was stirred and dried under nitrogen until powder. BSA is a physiological carrier of fatty acids and was used to avoid the introduction of organic solvents to solutions coming into contact with cells. Fatty acid-free BSA (1 g) was dissolved in 100 ml with Dulbecco's modified Eagle's medium without phenol red and mixed with 3 g of the stearate/diatomaceous earth mixture with stirring for 45 min. The stearate/BSA solution was filtered through a 0.45 μm filter, and adjusted to pH 7.4. The concentration of stearate in the solution was detected with the NEFA C Kit from Wako Chemicals GmbH (Neuss, Germany). […]
Ras and Rho activation assay kits were purchased from Millipore (Billerica, Mass.). […] The beads were washed three times with lysis buffer B. Bound Ras-GTP and Rho-GTP proteins were detected by immunoblot using Ras and Rho antibodies.

## CCCCCCCCCCCCCCCCCC(=O)O [stearate, Stearic acid]
[1]
  p21^CIP1/WAF1 mRNA expression: increased
[2]
  Expression of Bax: increases
  Expression of cIAP2: reduces
[3]
  Cell viability: no decrease
[4]
  Cells in the S phase: reduced
[4]; also in complete media and with EGF
  Number of cells in G0/G1 and G2/M: increased
[5]
  Effect on MCF10A non-tumorigenic cell line: not affected
[6]
  Rho-GTP: decreased
